Test results published in patent US6992068B2 (Gifu Shellac Mfg., Co., Ltd., priority 2000, dated 2006).

Assays:
[1] = molecular target: T1, 11 β-hydroxysteroid dehydrogenase (Rattus norvegicus, UniProt P16232); test: Experiment 5: inhibition of 11 β-hydroxysteroid dehydrogenase activity (rat liver microsome, cortisone by HPLC); format: biochemical; conditions: for inhibitory activity relative to glycirrhizin: from IC50 values; for IC50: rat liver microsome, substrate hydrocortisone, NADP 1 mM, pH 8.0, read-out: IC50 (concentration in which 50 percent of enzyme activity is inhibited)
T1 construct: Fresh rat liver was ice-cooled and homogenized in 0.25 M sucrose solution; from tissue; host or cells: rat liver microsome fraction
Procedure: In order to evaluate the effect of inhibiting 11 β-hydeoxysteroid dehydrogenase activity by the purified periandrins (PD-I, PD-II, PD-III, PD-IV) obtained in Example 4 or 5, IC 50 values (concentration in which the 50 percent of activity of the above enzyme is inhibited) of the purified periandrins were measured by the following steps I-VI.
I. An enzymatic solution containing rat liver microsome as a preparation of 11 β-hydroxysteroid dehydrogenase was prepared as below.
Fresh rat liver was ice-cooled and homogenized in 0.25 M sucrose solution. Then, at the temperature of 4° C., it was centrifuged for 20 minutes at 10,000×g.
After separating cell organelles of the nucleus, mitochondria and lysosome as deposits, the supernatant layer was further centrifuged at 105,000×g for 60 minutes at the temperature of 4° C. to obtain a microsome fraction as a precipitate.
The obtained microsome fraction was suspended by 0.25 M sucrose solution to produce an enzymatic solution, and the obtained solution was stored at the temperature of −20 degrees till the time of measurement of enzyme activity.
1 mM of NADP (product of Oriental Yeast Co., Ltd,) as a coenzyme and an amount of PD-I having a predetermined concentration (ranging from 2 to 1480 μM) as an inhibitor were added to 0.8 ml of Tris-HCI buffer solution having the concentration of 100 mM (PH8.0).
0.2 ml of the enzymatic solution prepared in step I was added to the obtained solution, and after three minutes of preincubation at 37° C., 0.02 ml of 5 mM hydrocortisone solution which was dissolved in methanol was added to start a reaction between 11 β-hydroxysteroid dehydrogenase and PD-I. The reaction was continued for 30 minutes at the temperature of 30° C., and then it was stopped by adding 0.5 ml of ethyl acetate.
This solution was centrifuged and an ethyl acetate layer was separated into an Eppendorf tube. In the mean time, cortisone and substrate hydrocortisone generated by the reaction between 11 β-hydroxysteroid dehydrogenase and substrate hydrocortisone are transferred to the ethyl acetate layer.
Furthermore, the water phase after the centrifuge was again centrifuged in the same manner as above by adding 0.5 ml of ethyl acetate to separate an ethyl acetate layer. This process was repeated two more times.
The ethyl acetate layers obtained by three time extraction were put together into an Eppendorf tube and dried using a centrifugal evaporator.
To prepare a measurement sample, 0.2 ml of methanol was added into the Eppendorf tube in which the ethyl acetate layers were dried in step II, and then the tube was left for a night so that cortisone was completely dissolved. Cortisone was determined using HPLC.
Particularly, quantity of cortisone contained in the sample was calculated from a ratio of a peak area corresponding to cortisone when the measurement sample was introduced to HPLC to a peak area when 5 μl of standard solution (0.1 mg/ml of cortisone-methanol solution) was introduced.
The measurement conditions of HPLC were as follows.
IV. Relative activity (ratio of activity remained after reaction with an inhibitor to the initial activity) of 11 β-hydroxysteroid dehydrogenase was calculated from the quantity of cortisone in accordance with the following equation. Relative activity=((CI−CBL)/(CT−CBL))×100(%) • where • CT: cortisone quantity generated when no inhibitor is added; • CI: cortisone quantity generated when an inhibitor exists; and • CBL: cortisone quantity when enzyme is not added.
V. Measurement of relative activity when PD-II, PD-III, PD-IV, and glycirrhizin were added as an inhibitor instead of PD-I was performed in the same manner as in steps I-IV.
The concentration of the inhibitor PD-I, PD-II, PD-III or PD-IV in the measurement of relative activity is a predetermined value ranging from 2 to 1480 μM. The concentration of glycirrhizin is a predetermined value ranging from 0.2 to 445 μM. […]

[2] = tested on: collagen induction arthritis model; test: Experiment 2: collagen induction arthritis model, arthritis index; format: in vivo, mice; conditions: for symptoms of arthritis: purified periandrins in the model of Experiment 2; for arthritis index (ranking 0-5), group average: 5 mg/head i.p. every other day
Procedure: Clinical symptoms of arthritis of mice in the respective groups were evaluated by one and the same observer using 6 rankings from zero to five (the larger the value is, the worse the symptom is), and the averages per the respective groups were calculated. These evaluations were performed in 0, 3rd, 4th, 5th, 6th, 7th and 8th week after the first immunity The results were shown in FIG. 3 and Table 3.

liver function = test: Experiment 6: protecting and promoting liver function by purified periandrins, same manner as Experiment 1; format: in vivo, rats; conditions: 0.1-3 mg/Kg of body weight per injection
Procedure: (§1) In this case, however, the number of groups of rats were made six, one of which includes the rats to which PD-I was injected, another of which includes the rats to which PD-II was injected, another of which includes the rats to which PD-III was injected, another of which includes the rats to which PD-IV was injected, another of which includes the rats to which prednisolone acetate was injected, and another of which includes the rats to which a solvent without any drugs was injected.
(§2) The dose per one injection of PD-I, PD-II, PD-III and PD-IV was 0.1-3 mg/Kg of body weight.
(§3) The dose per one injection of prednisolone acetate was 5 mg/Kg of body weight.

cytokine production = test: Experiment 6: inhibition of cytokine production by purified periandrins, same manner as Experiment 1; format: in vivo, rats; conditions: 0.1-3 mg/Kg of body weight per injection
Procedure: as §1, §2, §3

[3] = tested on: autoimmune encephalomyelitis model; test: Experiment 3: autoimmune encephalomyelitis model, clinical score; format: in vivo, rats; conditions: for symptoms of encephalomyelitis: purified periandrins in the model of Experiment 3
[4] = tested on: glutamic-oxaloacetic transaminase activity (GOT); test: Experiment 1: blood GOT activity in mice with Propionivacterium acnes / lipopolysaccharide induced hepatopathy; format: in vivo; conditions: groups B (Brazilian licorice extract, 25 mg), D (Chinese licorice extract, 25 mg), F (prednisolone acetate 5 mg); i.p. four times
Procedure: (§4) The following experiment was performed to examine the effects of inhibiting cytokine production and lowering GOT activity of the extracts obtained in Example 1 and Comparative Example 1. Male mice of ddy system (Japan SLC, Inc.), each of which weighs 18-20 g, are prepared for the experiment. […] 5 mg of Propionivacterium acnes suspension was injected into the vein of the aforementioned mice respectively, to cause hepatopathy. […] 10 μg of lipopolysaccharide was injected into the vein of the mice in all groups respectively, thirty minutes after the fourth injection in step II (as to the mice in group A, the injection was performed at the same timing as the mice in the other groups). Then, two hours later, blood was taken from all the mice to obtain serum. There was no visible change in weight and food and water consumption of the mice. From the serum obtained in step III, glutamic-oxaloacetic transaminase activity (GOT) was measured. For the measurement, a commercially available measurement kit which adopts Enzyme Linked immuno-Sorbent Assay using enzyme labeling antibody was used. […] Units.

[5] = Experiment 4: weight changes of rats in autoimmune encephalomyelitis model; format: in vivo; conditions: 5 mg/Kg of body weight per injection
Procedure: The immunosuppressive effect of the BL. 1, BL. 2 and […].
The manner of experiment was basically the same as the aforementioned Experiment 3.
However, the number of groups of rats were reduced to five, one of which included the rats to which the BL. 1 was injected, another of which included the rats to which the BL. 2 was injected, another of which included the rats to which the BL. 3 was injected, another of which included the rats to which prednisolone acetate was injected, and another of which included the rats without injection.
The dose per one injection of BL. 1, BL. 2 and BL. 3 was 6 mg/head and in the form of physiological saline.
The dose per one injection of prednisolone acetate was 5 mg/Kg of body weight and in the form of physiological saline.

[6] = tested on: collagen induction arthritis model; test: Experiment 2: collagen induction arthritis model, foot pad swelling (foot pad volume); format: in vivo, mice; conditions: 5 mg/head i.p. every other day
Procedure: These evaluations were performed in 0, 3rd, 4th, 5th, 6th, 7th and 8th weeks after the first immunity. The values in FIG. 4 are relative values based on the initial hind foot pad volumes.

[7] = extracts of Example 2 / Comparative Example 2 6 and 12.5 mg/head, prednisolone acetate 5 mg/Kg, i.p. every other day, eight weeks
Procedure: DBJ/1J mice were used in the experiment. The mice are divided into six groups, namely, G, H, I, J, K and L, each consisting of six mice.
50 μl (200 μg/head) of the emulsion was then injected to the back neck skin of each of the mice under ether (first immunity).
Three weeks after the first immunity, 50 μl (200 μg/head) of the emulsion was injected to the tail head skin of each of the mice (second immunity).
Prednisolone acetate (produced by Shionogi & Co., Ltd.) which is a control drug was suspended by physiological saline so that the dosage is 5 mg/Kg of body weight, and the obtained suspended solution was injected into the abdominal cavity of each mouse in group L by 1 ml every other day after the first immunity.
The above injections were performed all through the test period (for eight weeks after the first immunity).
The weight of the mice in the respective groups were measured every day after the first immunity and the average weight per each of the groups was calculated.

interleukin-6 (IL-6) = test: Experiment 1: blood cytokine (IL-6) in mice with Propionivacterium acnes / lipopolysaccharide induced hepatopathy; format: in vivo; conditions: groups B (Brazilian licorice extract of Example 1, 25 mg), D (Chinese licorice extract of Comparative Example 1, 25 mg), F (prednisolone acetate 5 mg); i.p. four times; serum 2 h after LPS
Procedure: as §4, with “measurement of interleukin-6 (IL-6), which is a kind of cytokine,” for “glutamic-oxaloacetic transaminase activity (GOT)”, “performed.” for “measured.”, “Fluorescence” for “Enzyme”, “fluorescence” for “enzyme”, “The measured values in Table 1 show IL-6 levels (unit: picogram) per 1 ml serum.” for “Units.”

T1 sequence (P16232 whole entry): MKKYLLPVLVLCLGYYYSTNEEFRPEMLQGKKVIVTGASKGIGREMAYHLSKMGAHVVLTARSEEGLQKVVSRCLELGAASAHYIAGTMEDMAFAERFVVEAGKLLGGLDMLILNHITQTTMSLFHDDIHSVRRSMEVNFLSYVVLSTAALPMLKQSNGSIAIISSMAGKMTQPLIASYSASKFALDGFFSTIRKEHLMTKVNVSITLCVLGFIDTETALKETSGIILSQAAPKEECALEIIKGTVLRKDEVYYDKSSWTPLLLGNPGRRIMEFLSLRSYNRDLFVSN

Molecule	inhibitory activity relative to glycirrhizin [1]	IC50 [1]	symptoms of arthritis [2]	effect of protecting and promoting liver function (liver function)	effect of inhibiting cytokine production (cytokine production)	symptoms of encephalomyelitis [3]	also measured
CC1(C)[C@@H](O[C@@H]2O[C@H](C(=O)O)[C@@H](O)[C@H](O)[C@H]2O[C@@H]2O[C@H](C(=O)O)[C@@H](O)[C@H](O)[C@H]2O)CC[C@]2(C=O)[C@H]3CC[C@@H]4C5=C[C@@](C)(C(=O)O)CC[C@]5(C)CC[C@@]4(C)[C@]3(C)CC[C@@H]12 [PD-I, periandrin I]	about one fifth to one twentieth of glycirrhizin	214 µM	eased the symptoms of arthritis	protecting and promoting liver function	show the effects of inhibiting cytokine production	eased the symptoms of arthritis and encephalomyelitis	–
CC1(C(=O)O)C=C2C3CCC4C5(CO)CCC(OC6OC(C(=O)O)C(O)C(O)C6OC6OC(C(=O)O)C(O)C(O)C6O)C(C)(C)C5CCC4(C)C3(C)CCC2(C)CC1 (centres unmarked) [PD-III, periandrin III]	about one fifth to one twentieth of glycirrhizin	581 µM	eased the symptoms of arthritis	protecting and promoting liver function	show the effects of inhibiting cytokine production	eased the symptoms of arthritis and encephalomyelitis	–
CC1(C)[C@@H](O[C@H]2O[C@H](C(=O)O)[C@@H](O)[C@H](O)[C@H]2O[C@@H]2O[C@H](C(=O)O)[C@@H](O)[C@H](O)[C@H]2O)CC[C@]2(C)[C@H]3C(=O)C=C4[C@@H]5C[C@@](C)(C(=O)O)CC[C@]5(C)CC[C@@]4(C)[C@]3(C)CC[C@@H]12 [glycirrhizin, reference compound]	–	26.2 µM	–	–	–	–	–
CC(=O)OCC(=O)[C@@]1(O)CC[C@H]2[C@@H]3CCC4=CC(=O)C=C[C@]4(C)[C@H]3[C@@H](O)C[C@@]21C [prednisolone acetate]	–	–	–	–	–	–	arthritis index (ranking 0-5), group average ([2]; 3rd week): 0; arthritis index (ranking 0-5), group average ([2]; 4th week): 0; arthritis index (ranking 0-5), group average ([2]; 5th week): 0; arthritis index (ranking 0-5), group average ([2]; 6th week): 0; arthritis index (ranking 0-5), group average ([2]; 7th week): 0.125; arthritis index (ranking 0-5), group average ([2]; 8th week): 0.125; arthritis index (ranking 0-5), group average ([2]; Primary immunity): 0; blood GOT activity level, average of eight mice [4]: 350.705 Kermen Units; weight increase compared to the other groups (FIG. 6, words) [5]: had the least increase; time at which a few rats developed encephalomyelitis ([3]; group R, 5 mg/Kg of body weight i.p. once a day for 12 days): 8-11 days after the injection of emulsion; hind foot pad volume, group average, relative to initial volume ([6]; 3rd week): 99.2; hind foot pad volume, group average, relative to initial volume ([6]; 4th week): 95.2; hind foot pad volume, group average, relative to initial volume ([6]; 5th week): 101.1; hind foot pad volume, group average, relative to initial volume ([6]; 6th week): 102.4; hind foot pad volume, group average, relative to initial volume ([6]; 7th week): 95.5; hind foot pad volume, group average, relative to initial volume ([6]; 8th week): 97.9; hind foot pad volume, group average, relative to initial volume ([6]; Primary immunity): 100; average weight of mice (FIG. 2) [7]: reduced significantly; blood IL-6 level, average of eight mice (interleukin-6 (IL-6)): 26473 picogram per 1 ml serum
periandrin II [PD-II]	about one fifth to one twentieth of glycirrhizin	150 µM	eased the symptoms of arthritis	protecting and promoting liver function	show the effects of inhibiting cytokine production	eased the symptoms of arthritis and encephalomyelitis	–
periandrin IV [PD-IV]	about one fifth to one twentieth of glycirrhizin	240 µM	eased the symptoms of arthritis	protecting and promoting liver function	show the effects of inhibiting cytokine production	eased the symptoms of arthritis and encephalomyelitis	–
